Experiments:
BRD4 (I) = BRD4 (I) (Homo sapiens (Human), UniProt O60885); experiment: Fluorescence anisotropy (FA) binding test on BRD4 (I); conditions: BRD4 (I) 10 nM, fluorescent (+)-JQ1 substrate 5 nM, read-out: BRD4 (1) IC50
Procedure: The binding activity of the compound to BRD4 (I) was tested using a fluorescence anisotropy (FA) method. The principle of FA test is to calculate and analyze the fluorescence polarization values in the horizontal and vertical directions by detecting the change of molecular weight before and after the interaction of fluorescein-labeled small molecules with other molecules. If the equilibrium of the binding between the fluorescently labeled small molecule and macromolecule is established, it will move slowly when excited, and the measured fluorescence polarization value will increase. If the binding between the fluorescently labeled small molecule and the macromolecule is replaced by another ligand, its rotation or flipping speed in the free state will be faster, and the emitted light will be depolarized relative to the plane of the excitation light, and the measured polarized light value will decrease to calculate the fluorescence anisotropy of the sample.
Expression and purification of the BRD4(I) recognition domain: colonies of newly transformed plasmid DNA from E. coli BL21(DE3)-condon plus-RIL cells were cultivated in 50 mL of Terrific Broth medium containing 50 μg/mL kanamycin and 34 μg/mL chloramphenicol at 37° C. overnight (starting culture). The starting culture was then diluted 100-fold in 1 L of fresh TB medium and the cells were grown at 37° C. to an optical density of about 0.8 at OD600 and then the temperature was lowered to 16° C. When the system was equilibrated at 16° C., the optical density at OD600 was approximately 1.2, and protein expression was induced with 0.2 mmol of isopropyl-β-D-thiogalactopyranoside (IPTG) overnight at 16° C. Bacteria were harvested by centrifugation (4000×g, 20 minutes, 4° C.) and stored as a pellet at −80° C. The cells expressing His 6-tagged protein was resuspend in lysis buffer [50 mmol 4-hydroxyethylpiperazineethanesulfonic acid (HEPES), 25° C., pH 7.5, 500 mmol NaCl, 10 mmol imidazole, 5% glycerol and freshly added 0.5 mmol of tris(2-carboxyethyl)phosphine hydrochloride (TCEP) and 1 mmol of phenylmethanesulfonyl fluoride (PMSF)] and lysed at 4° C. using JN 3000PLUS high pressure homogenizer (JNBIO-Guangzhou, China). The lysate was clarified by centrifugation (12,000×g for 1 hour at 4° C.) and applied to a nickel-nitriloacetate agarose column. The column was washed once with 50 mL of wash buffer containing 30 mmol of imidazole. The protein was eluted using imidazole in an elution buffer in a stepwise elution (100-250 mmol imidazole in 50 mmol HEPES, 25° C., pH 7.5, 500 mmol NaCl, 5% glycerol). All fractions were collected and monitored by SDS-polyacrylamide gel electrophoresis (Bio-Rad Criterion TM Precast Gels, 4-12% Bis-Tris, 1.0 mm, from Bio-Rad, CA). After 1 mmol of dithiothreitol (DTT) was added, the eluted proteins were treated with tobacco […] virus (TEV) protease overnight at 4° C. to remove the His6 tag. The protein was concentrated and further purified by size exclusion chromatography on a Superdex 75 16/60 HiLoad gel filtration column. The samples were monitored by SDS-polyacrylamide gel electrophoresis and concentrated to 8-10 mg/mL with gel filtration buffer, 10 mmol Hepes pH 7.5, 500 mM NaCl, 1 mmol DTT, and used for protein binding assays and crystallization.
The fluorogenic substrate was (+)-JQ1 linked to a fluorescent molecule and the working concentration was 5 nM. BRD4 (I) protein had 10 nM of working concentration and the total reaction system was 40 μL. The buffer was 50 mM 4-hydroxyethylpiperazineethanesulfonic acid (HEPES) pH 7.4, 150 mM NaCl, 0.5 mM 3[(3-cholamidopropyl)dimethylammonio]propanesulfonate (CHAPS). […] The final concentration of DMSO was chosen to be 0.2%, taking into account the solubility of the compound and the effect of DMSO on the assay. All measurements were made under these conditions. […]

[1] = system: human myeloma cells MM.1S; experiment: MM.1S cell viability, CCK-8 method; assay type: cell-based; conditions: for IC50: 72 h treatment, CCK-8; for inhibitory activity against the MM.1S cell line (in words): compared with positive (+)-JQ1
Procedure: The MM.1S cell line was tested for cell viability. The test methods were as follows: human myeloma cells MM.1S were treated with compound for 72 h, and the proliferation inhibition effect and degree of the compound were detected by CCK-8 method.

For `Cc1ccc(-n2nnnc2-c2ccc3c(c2)N(C2CCCC2)C(C)C(=O)N3C)cc1` (stereo not drawn) [Example 4], the IC50 (BRD4 (I)) was 18.4 nM.
`C[C@@H]1C(=O)N(C)c2ccc(-c3nc(C(=O)N4CCN(C)CC4)nn3-c3ccccc3)cc2N1C1CCCC1` [Example 7] gave an IC50 (BRD4 (I)) of 7.6 nM.
In the case of `Cc1ccc(-n2nc(C(=O)N3CCN(C)CC3)nc2-c2ccc3c(c2)N(C2CCCC2)[C@H](C)C(=O)N3C)c(C)c1` [Example 9], the IC50 ([1]; Homo sapiens, MM1.S) is reported as 23 ± 7.42 nM and the IC50 (BRD4 (I)) is reported as 8.2 nM.
Work on `CCN1CCN(C(=O)c2nc(-c3ccc4c(c3)N(C3CCCC3)[C@H](C)C(=O)N4C)n(-c3ccc(C)cc3)n2)CC1` [Example 10] yielded an IC50 ([1]; Homo sapiens, MM1.S) of 25.8 ± 0.52 nM and an IC50 (BRD4 (I)) of 4.96 nM.
Work on `Cc1ccc(-n2nc(C(=O)N3CCN(C4CC4)CC3)nc2-c2ccc3c(c2)N(C2CCCC2)[C@H](C)C(=O)N3C)cc1` [Example 11] yielded an IC50 (BRD4 (I)) of 5.08 nM.
`Cc1ccc(-n2nc(C(=O)N(C)CCN(C)C)nc2-c2ccc3c(c2)N(C2CCCC2)[C@H](C)C(=O)N3C)cc1` [Example 13] gave an IC50 ([1]; Homo sapiens, MM1.S) of 22.4 ± 1.4 nM and an IC50 (BRD4 (I)) of 8.3 nM.
For `Cc1ccc(-n2nc(C(=O)N3CC4CCC(C3)N4C)nc2-c2ccc3c(c2)N(C2CCCC2)[C@H](C)C(=O)N3C)cc1` [Example 14], the IC50 ([1]; Homo sapiens, MM1.S) was 10.7 ± 1.71 nM, the “inhibitory activity against the MM.1S cell line (in words)” value (shortened to “inhibitory activity”) [1] was “better inhibitory activity against the MM.1S cell line than the positive (+)-JQ1” and the IC50 (BRD4 (I)) was 4.5 nM.
In the case of `Cc1ccc(-n2nc(C(=O)N3CCN(C(C)C)CC3)nc2-c2ccc3c(c2)N(C2CCCC2)[C@H](C)C(=O)N3C)cc1` [Example 15], the IC50 (BRD4 (I)) is reported as 4.2 nM.
`Cc1ccc(-n2nc(C(=O)N3CCN(C)CC3)nc2-c2ccc3c(c2)N(C2CCCC2)[C@H](C)C(=O)N3C)cc1F` [Example 16] showed an IC50 ([1]; Homo sapiens, MM1.S) of 29.4 ± 9.3 nM and an IC50 (BRD4 (I)) of 4.06 nM.
For `Cc1ccc(-n2nc(C(=O)N3C4CCC3CN(C)C4)nc2-c2ccc3c(c2)N(C2CCCC2)[C@H](C)C(=O)N3C)cc1` [Example 18], the IC50 ([1]; Homo sapiens, MM1.S) was 10.22 ± 0.02 nM, the “inhibitory activity” value [1] was “better inhibitory activity against the MM.1S cell line than the positive (+)-JQ1” and the IC50 (BRD4 (I)) was 6.5 nM.
For `Cc1ccc(-n2nc(C(=O)N3CCCN(C)CC3)nc2-c2ccc3c(c2)N(C2CCCC2)[C@H](C)C(=O)N3C)cc1` [Example 19], the IC50 (BRD4 (I)) was 4.6 nM.
Compound `Cc1ccc(-n2nc(C(=O)N3CCC4(CCCC4)CC3)nc2-c2ccc3c(c2)N(C2CCCC2)[C@H](C)C(=O)N3C)cc1` [Example 20] has an IC50 (BRD4 (I)) of 25.4 nM.
`Cc1ccc(-n2nc(C(=O)N3CCC4(CCOC4)CC3)nc2-c2ccc3c(c2)N(C2CCCC2)[C@H](C)C(=O)N3C)cc1` [Example 21] was tested, and the IC50 (BRD4 (I)) was 7.1 nM.
With `Cc1ccc(-n2nc(C(=O)N3CCN4CCCC4C3)nc2-c2ccc3c(c2)N(C2CCCC2)[C@H](C)C(=O)N3C)cc1` (stereo partly drawn) [Example 22] the IC50 (BRD4 (I)) was 8.1 nM.
`Cc1ccc(-n2nc(C(=O)N3C[C@@H](NC(=O)OC(C)(C)C)C4(CC4)C3)nc2-c2ccc3c(c2)N(C2CCCC2)[C@H](C)C(=O)N3C)cc1` [Example 23] gave an IC50 (BRD4 (I)) of 9.2 nM.
For `Cc1ccc(-n2nc(C(=O)N3C[C@@H](N)C4(CC4)C3)nc2-c2ccc3c(c2)N(C2CCCC2)[C@H](C)C(=O)N3C)cc1` [Example 24], the IC50 (BRD4 (I)) was 5.3 nM.
With `Cc1ccc(-n2nc(C(=O)N3C4CCC3CN(C)C4)cc2-c2ccc3c(c2)N(C2CCCC2)[C@H](C)C(=O)N3C)cc1` [Example 28] the IC50 (BRD4 (I)) was 6.7 nM.
Work on `Cc1ccc(-n2nc(C(=O)N3CC4CCC(C3)N4C)cc2-c2ccc3c(c2)N(C2CCCC2)[C@H](C)C(=O)N3C)cc1` [Example 29] yielded an IC50 (BRD4 (I)) of 7.7 nM.
`Cc1ccc(-n2c(C)nnc2-c2ccc3c(c2)N(C2CCCC2)[C@H](C)C(=O)N3C)cc1` [Example 32] gave an IC50 (BRD4 (I)) of 5.1 nM.
For `Cc1ccc(-n2nc(C(=O)N3CCN(C)CC3)nc2-c2ccc3c(c2)N(C2CC2)C(C)C(=O)N3C)c(C)c1` (stereo not drawn) [Example 34], the IC50 ([1]; Homo sapiens, MM1.S) was 9.11 ± 2.91 nM, the “inhibitory activity” value [1] was “better inhibitory activity against the MM.1S cell line than the positive (+)-JQ1” and the IC50 (BRD4 (I)) was 13.9 nM.
With `CCN1CCN(C(=O)c2nc(-c3ccc4c(c3)N(C3CC3)C(C)C(=O)N4C)n(-c3ccc(C)cc3C)n2)CC1` (stereo not drawn) [Example 35] the IC50 ([1]; Homo sapiens, MM1.S) was 15.5 ± 7.42 nM, the “inhibitory activity” value [1] was “better inhibitory activity against the MM.1S cell line than the positive (+)-JQ1” and the IC50 (BRD4 (I)) was 14.5 nM.
`Cc1ccc(-n2nc(C(=O)N3C[C@@H](C)N[C@@H](C)C3)nc2-c2ccc3c(c2)N(C2CC2)C(C)C(=O)N3C)cc1` (stereo partly drawn) [Example 36] was tested, and the IC50 ([1]; Homo sapiens, MM1.S) was 3.13 nM, the “inhibitory activity” value [1] was “better inhibitory activity against the MM.1S cell line than the positive (+)-JQ1” and the IC50 (BRD4 (I)) was 18.5 nM.
For `Cc1ccc(-n2nc(C(=O)N3C[C@@H](C)N[C@@H](C)C3)nc2-c2ccc3c(c2)N(C(C)C)[C@H](C)C(=O)N3C)cc1` [Example 37], the IC50 ([1]; Homo sapiens, MM1.S) was 18.2 nM, the “inhibitory activity” value [1] was “better inhibitory activity against the MM.1S cell line than the positive (+)-JQ1” and the IC50 (BRD4 (I)) was 15.1 nM.
For `Cc1ccc(-n2nc(C(=O)N3C[C@@H](C)N[C@@H](C)C3)nc2-c2ccc3c(c2)N(C2COC2)[C@H](C)C(=O)N3C)cc1` [Example 38], the IC50 (BRD4 (I)) was 13.6 nM.
Work on `Cc1ccc(-n2nc(C(=O)N3C[C@@H](C)N[C@@H](C)C3)nc2-c2ccc3c(c2)N(C2CCOCC2)[C@H](C)C(=O)N3C)cc1` [Example 39] yielded an IC50 (BRD4 (I)) of 10.3 nM.
Work on `Cc1ccc(-n2nc(C(=O)N3C[C@@H](C)N[C@@H](C)C3)nc2-c2ccc3c(c2)N(C2CCC(F)(F)CC2)[C@H](C)C(=O)N3C)cc1` [Example 40] yielded an IC50 (BRD4 (I)) of 16 nM.
For `Cc1ccc(-n2nc(C(=O)N3C[C@@H](C)N[C@@H](C)C3)nc2-c2ccc3c(c2)N(C2CC(F)(F)C2)[C@H](C)C(=O)N3C)cc1` [Example 41], the IC50 (BRD4 (I)) was 20.1 nM.
Compound `Cc1ccc(-n2nc(CN3C[C@@H](C)N[C@@H](C)C3)nc2-c2ccc3c(c2)N(C2CCCC2)[C@H](C)C(=O)N3C)cc1` [Example 47] has an IC50 (BRD4 (I)) of 6.7 nM.
(+)-JQ1 [reference compound] gave an IC50 [1] of 19.3 ± 9.3 nM.

— US11078188B2, “Dihydroquinoxaline bromodomain recognition protein inhibitor, preparation method and use thereof” (SHANGHAI INSTITUTE OF MATERIA MEDICA, CHINESE ACADEMY OF …, priority 2017, dated 2021)
